Measurements published in US10730886B2, “Compound having effect of inhibiting platelet aggregation and salt thereof, and composition for preventing or treating thrombotic diseases, containing same” (SHIN POONG PHARMACEUTICAL CO., LTD., priority 2015, dated 2020).
Like-named read-outs stand apart in the source and are kept apart here.

What was measured:
[1] = tested on: human liver cells (HepG2); test: Cytotoxicity in human liver cells HepG2 (WST-1); assay type: cell-based; details: HepG2, 40 mM, control
Experimental: 5-3. Evaluation of Cytotoxicity of Candidate Substances Using Human Liver Cells
Experiments were conducted to evaluate cytotoxicity in human liver cells (HepG2). HepG2 cells, which are human liver carcinoma cell lines, were cultured in DMEM (Dulbecco's minimum essential medium) supplemented with 10% FBS (fetal bovine serum) and 1% Penicillin/Streptomycin at 37° C. and 5% CO2. The cells were cultured in a 48 well plate at 4×10^4 cells/well for 24 hours and then used in the experiments. The HepG2 cells were treated with the candidate substances (250 μM) for 18 hours, and then the medium was removed and WST-1 was added, followed by shading for 3 hours for reaction. After 3 hours, the supernatant was taken and absorbance was measured at 450 nm. Cell viability was calculated by comparing the absorbance measured after adding WST-1 to HepG2 cells not treated with the candidate substances. Acetaminophen (40 mM) was used as a control.

[2] = tested on: carotid artery shear stress model; test: Carotid artery shear stress model, amount of thrombus; assay type: in vivo, Sprague-Dawley rats; details: rat, twice a day for 3 days after operation
Experimental: Vehicle (0.5% methylcellulose), clopidogrel (8 mg/kg), aspirin (50 mg/kg) or a candidate substance was orally administered to male Sprague-Dawley rats (250 to 300 g). 2 hours after administration, the rats were anesthetized by ketamine/rompun (ketamine/xylazine) cocktail 0.1 ml/100 g. Except for the normal control group, the right cervical skin of the experimental animals was incised to expose the common carotid artery. A surgical tube with a length of 1 mm and an inside diameter of 0.58 mm was inserted into the exposed carotid artery and tied with a single thread. The exposed site and the operation site were treated with an anti-adhesion agent, and then sutured for the animals to recover. After the surgery, vehicle, clopidogrel, aspirin or a candidate substance was orally administered to the rats twice a day for 3 days. On the fourth day, 2 hours after the final administration, urethane (100 mg/300 μl/100 g) was administered intraperitoneally to the rats to induce anesthesia, and the operation site was opened to separate a total of 1 cm of the blood vessel, 5 mm above and 5 mm below the surgical tube. The separated blood vessel was perfused with 0.2 ml of 0.9% saline at 0.3 ml/min to remove the remaining blood, and then maintained in 1 ml of protein lysis buffer (NaOH 2 g, Na2CO3 0.1 g in 500 ml D.W). After collected, the blood vessel thrombus was double-boiled in boiling water together with the protein lysis buffer. 200 μl of the reaction solution (10 ml bicinchoninic acid solution+200 μl 4% aqueous solution of copper sulfate) was added to 10 μl of the heated thrombus, and the mixture was reacted at 37° C. for 30 minutes and quantified with an ELISA reader (562 nm).

[3] = tested on: Sprague-Dawley rats; test: Bleeding side effect (tail bleeding time) after single oral administration; assay type: in vivo; details: rat, tail cut 1 hour after administration
Experimental: Male Sprague-Dawley rats (250 to 300 g) were fasted overnight and then were orally administered with the candidate substances at each concentration. After 1 hour, the rats were anesthetized by intraperitoneal injection of urethane (1.25 g/kg). The 3 mm portion of the tail tip of the rats was cut and carefully wiped every 30 seconds. Bleeding time was measured in […] until no more blood was drawn, and when the bleeding lasted longer than 30 minutes, the bleeding time was recorded as 30 minutes.

[4] = tested on: ICR mouse; details: male, in vivo, po, 7 days
Experimental: One hour after the last administration, the mice were anesthetized by breathing, and the 4 mm portion from the tail tip of the mice was cut. Then, the tail tip of the mice was immersed in a transparent 15-ml tube containing the pre-prepared 37° C. saline. The time when blood was not spread any more and the bleeding stopped was measured.

[5] = tested on: ADP-induced platelet aggregation, Human PRP; test: ADP-induced platelet aggregation in human PRP (lumi-aggregometer); assay type: cell-based
Experimental: To investigate whether the candidate substance has inhibition selectivity for shear-stress-induced platelet aggregation, which is by a physical stimulus, […] experiment was conducted by activating platelets with physiological agonists—i.e., thrombin, collagen and ADP—to study the inhibitory effect of the candidate substance.
Human PRP (598.8 μl) was treated with 1.2 μl of the candidate substance per concentration (25, 100, 250 μM) and reacted at 37° C. for 3 minutes using a thermomixer. Then, PRP (495 μl) was put in the aggregometer cuvette and preincubated for 1 minute, followed by treatment with platelet aggregation-inducing reagent, thrombin (0.6-0.8 U/ml), collagen (2-5 μg/ml), or ADP (adenosine diphosphate, 15-20 μM) at the minimum concentration causing maximum aggregation. The degree of aggregation of the platelets was measured by a turbidity change using a lumi-aggregometer (Chrono-Log Co., USA). The turbidity of the PRP was considered as 0%, and the turbidity of the PPP was considered as 100%. During the measurement, the reaction mixture was continuously stirred at 1,000 rpm with a silicone-coated magnetic stir bar.

[6] = tested on: Human Platelet Rich Plasma (PRP); test: Shear stress-induced platelet aggregation inhibition in human platelet rich plasma (PRP), cone-plate viscometer; assay type: cell-based; details: Homo sapiens, Platelet, Table 1 summary bins; concentration and matrix not given; read-out: Inhibitory effect of shear stress-induced platelet aggregation
Experimental: 1-1. Measurement of Platelet Aggregation Inhibitory Effect Using Human Platelet Rich Plasma (PRP)
Blood was collected from the veins of healthy male volunteers who had not taken any medication for more than 2 weeks. All related studies were conducted under the approval of the Seoul National University Institutional Review Board (IRB No. 1305/001-016). During the whole process of study the use of glass containers or glass pipettes was avoided, and the experiments were performed at room temperature. To separate platelet rich plasma (PRP), the blood was collected with 3.2% sodium citrate as an anticoagulant. The whole blood was centrifuged at 150 g for 15 minutes to obtain the supernatant (PRP), and the residue was centrifuged at 2,000 g for 20 minutes to obtain platelet poor plasma (PPP). The number of platelets of the PRP thus obtained was counted with an optical microscope using a hemacytometer. PRP was diluted with PPP so as to include 3×10^8 platelets per 1 ml, and then used in the experiments. PRP was put on a cone-plate viscometer (RotoVisco 1, Thermo Fischer Scientific, USA), and shear stress was applied to the PRP at 37° C. for 3 minutes at a shear rate of 10,800 s^−1. In order to evaluate candidate substances, prior to the induction of platelet aggregation, 598.8 μl of PRP was treated with 1.2 μl of 25 μM candidate substance and incubated at 37° C. for 3 minutes using a thermomixer. After applying the shear stress, 20 μl of PRP was fixed in 280 μl of a suspension buffer containing 0.5% glutaraldehyde (134 mM NaCl, 2.9 mM KCl, 1.0 mM MgCl2.6H2O, 10.0 mM HEPES, 5.0 mM dextrose, 12.0 mM NaHCO3, 0.34 mM Na2HPO4, 0.3% BSA, pH 7.4). Then, the number of single platelets in the suspension was counted using a hemacytometer. The degree of inhibition by the candidate substance was calculated according to the following formula (1). The degree of inhibition was determined by the method described below. No shear stress-applied group served as a control, and only shear stress-applied group served as positive control. Degree of inhibition (%)=[(1−A/B)×100]/[(1−A/C)×100] Formula 1
A: Number of single platelets in the shear stress-applied sample after treatment with candidate substance
B: Number of single platelets in the control group with no shear stress applied
C: Number of single platelets in the positive control group with only shear stress applied

SMILES | inhibition at 25 µM [6] [%] | further results
CC(=O)Nc1ccc(O)cc1 [Acetaminophen, reference compound] |  | Cell vaibility (%) [1]: 35.3 ± 3.5%
CC(=O)Oc1ccccc1C(=O)O [Aspirin, aspirin, reference compound] |  | Amount of thrombus (mg, Mean ± SEM) ([2]; 50 mg/kg oral): 0.092 ± 0.007 mg; Bleeding time ([3]; 25 μM (so in the source)): 9.5 ± 0.8 min; Bleeding time ([3]; 100 μM (so in the source)): 15.1 ± 0.8 min; Bleeding time ([4]; 100 mg/kg): 12.3 ± 0.7 min; Bleeding time (min) ([4]; 100 mg/kg): exceeded 12 min; bleeding time delayed, times compared with the control group ([4]; 100 mg/kg): about 7.6 times
COC(=O)[C@H](c1ccccc1Cl)N1CCc2sccc2C1 [Clopidogrel, clopidogrel, reference compound] |  | Amount of thrombus (mg, Mean ± SEM) ([2]; 8 mg/kg oral): 0.067 ± 0.004 mg; Degree of platelet aggregation (%, Mean ± SEM) ([5]; ADP 15-20 μM, compound 40 μM): 18.3 ± 3.4%; platelet aggregation compared with the group treated with ADP only ([5]; positive control, 40 μM): platelet aggregation was inhibited; Bleeding time ([3]; 2.5 μM (so in the source)): 14.3 ± 1.6 min; Bleeding time ([3]; 25 μM (so in the source)): 26.8 ± 1.6 min; Bleeding time ([4]; 15 mg/kg): 35.4 ± 2.9 min; Bleeding time (min) ([4]; 15 mg/kg): exceeded 35 min; bleeding time delayed, times compared with the control group ([4]; 15 mg/kg): about 22 times
O=C(c1ccc(O)c(O)c1)N1CCC(c2noc3ccc(F)cc23)CC1 [Example 2, (3,4-Dihydroxyphenyl)(4-(5-fluorobenzo[d]isoxazol-3-yl)piperidin-1-yl)methanone] | 20 to 30 | 
O=C(NCC1CN(Cc2ccc(F)cc2)CCO1)c1ccc(O)c(O)c1 (stereo not shown) [Example 3, N-((4-(4-Fluorobenzyl)morpholin-2-yl)methyl)-3,4-dihydroxybenzamide] | ≥ 30 | 
O=C(NC1CCSC1=O)c1ccc(O)c(O)c1 (stereo not shown) [Example 4, 3,4-Dihydroxy-N-(2-oxotetrahydrothiophen-3-yl)benzamide] | ≥ 30 | 
O=C(NCCCCCCCCCNC(=O)c1ccc(O)c(O)c1)c1ccc(O)c(O)c1 [Example 5, N,N′-(Nonan-1,9-diyl)bis(3,4-dihydroxybenzamide)] | 20 to 30 | 
O=C(c1ccc(O)c(O)c1)N1CCC(OC(c2ccc(Cl)cc2)c2ccccn2)CC1 (stereo not shown) [Example 6, (4-((4-Chlorophenyl)(pyridin-2-yl)methoxy)piperidin-1-yl)(3,4-dihydroxyphenyl)methanone] | 20 to 30 | 
O=C(c1ccc(O)c(O)c1)N1CCC(O[C@@H](c2ccc(Cl)cc2)c2ccccn2)CC1 [Example 7, (S)-(4-((4-Chlorophenyl)(pyridin-2-yl)methoxy)piperidin-1-yl)(3,4-dihydroxyphenyl)methanone] | 20 to 30 | 
COC(=O)[C@H](Cc1c[nH]c2ccccc12)NC(=O)c1ccc(O)c(O)c1 [Example 8, (S)-Methyl-2-(3,4-dihydroxybenzamido)-3-(1H-indol-3-yl)propanoate] | 20 to 30 | 
CCCc1nn(C)c(C(N)=O)c1NC(=O)c1ccc(O)c(O)c1 [Example 9, 4-(3,4-Dihydroxybenzamido)-1-methyl-3-propyl-1H-pyrazole-5-carboxamide] | 20 to 30 | 
Cc1occc(=O)c1OC(=O)c1ccc(O)c(O)c1 [Example 10, 2-Methyl-4-oxo-4H-pyran-3-yl 3,4-dihydroxybenzoate] | 20 to 30 | 
O=C(c1ccc(O)c(O)c1)N1CCN(c2ccccc2)CC1 [Example 11, (3,4-Dihydroxyphenyl)(4-phenylpiperazin-1-yl)methanone] | ≥ 30 | 
C#Cc1cccc(NC(=O)c2ccc(O)c(OC)c2)c1 [Example 16, N-(3-Ethynylphenyl)-4-hydroxy-3-methoxybenzamide] | ≥ 30 | 
CNC(=O)c1cc(Oc2ccc(NC(=O)c3ccc(O)c(OC)c3)cc2)ccn1 [Example 17, 4-(4-(4-Hydroxy-3-methoxybenzamido)phenoxy)-N-methylpicolinamide] | 20 to 30 | 
COc1cc(C(=O)N2CCC(OC(c3ccc(Cl)cc3)c3ccccn3)CC2)ccc1O (stereo not shown) [Example 18] | ≥ 30 | 
COc1cc(C(=O)NCc2c(CO)cnc(C)c2O)ccc1O [Example 19, 4-Hydroxy-N-((3-hydroxy-5-(hydroxymethyl)-2-methylpyridin-4-yl)methyl)-3-methoxybenzamide] | 20 to 30 | 
O=C(c1cc(O)ccc1O)N1CCC(OC(c2ccc(Cl)cc2)c2ccccn2)CC1 (stereo not shown) [Example 21, (4-((4-Chlorophenyl)(pyridin-2-yl)methoxy)piperidin-1-yl)(2,5-dihydroxyphenyl)methanone] | 20 to 30 | 
O=C(NCC1CN(Cc2ccc(F)cc2)CCO1)c1cc(O)ccc1O (stereo not shown) [Example 22, N-((4-(4-Fluorobenzyl)morpholin-2-yl)methyl)-2,5-dihydroxybenzamide] | ≥ 30 | 
COc1ccc(CCNC(=O)c2cc(O)ccc2O)cc1OC [Example 24, N-(3,4-Dimethoxyphenethyl)-2,5-dihydroxybenzamide] | 20 to 30 | 
O=C(NCCc1cccs1)c1cc(O)ccc1O [Example 25, 2,5-Dihydroxy-N-(2-(thiophen-2-yl)ethyl)benzamide] | 20 to 30 | 
O=C(NC1CCSC1=O)c1cc(O)ccc1O (stereo not shown) [Example 26, 2,5-Dihydroxy-N-(2-oxotetrahydrothiophen-3-yl)benzamide] | 20 to 30 | 
